According to patent publication US20020032330A1, “Propionic acid derivatives” (priority 1996, published 2002):

Legend:
KKA^y mouse = assay: Hypoglycemic and hypolipidemic effect in KKA^y mouse (oral, once a day for three days); format: in vivo; details: KKA^y mice, blood 18 hours after final administration
Description: The hypoglycemic effect and hypolipidemic effect were examined using KKA^y mouse which was known as insulin-independent diabetic animal. A group of KKA^y mice (9 to 11 week age) were divided into several groups based on plasma glucose concentration. Each group included mice having an equal plasma glucose concentration. To the mouse was orally administered a compound of the invention in the form of suspension in a 1% methylcellulose solution. The administration was performed once a day and for a period of three days. To the control (mouse having been administered no hypoglycemic agent) was orally administered a 1% methylcellulose solution in the same manner.
After 18 hours from the final administration, blood was collected, and the plasma glucose concentration and the triglyceride concentration were measured. The measurements were performed using commercially available measuring kits (Glucose CII-TestWako and Triglyceride G-TestWako, respectively, both available from Wako Chemicals Co., Ltd.).
The plasma glucose concentration and the triglyceride concentration were examined for each of the divided mouse groups, and their ratio (%) per the corresponding values obtained in the control was calculated.
The same tests were also performed using the comparison compounds, that is, troglitazone and pioglitazone hydrochloride, which were known as pharmaceuticals for treating diabetes.

SMILES | Plasma glucose concentration (% per control) (KKA^y mouse; dosage 100 mg/kg) | Triglyceride concentration (% per control) (KKA^y mouse; dosage 100 mg/kg) | Plasma glucose concentration (% per control) (KKA^y mouse; dosage 30 mg/kg) | Triglyceride concentration (% per control) (KKA^y mouse; dosage 30 mg/kg) | other results
O=C(O)C(Cc1cnc2ccc(OCc3ccc(C(F)(F)F)cc3)cc2c1)Sc1ccccc1 (centres unmarked) [Compound 1, 3-[6-[(4-trifluoromethyl)benzyloxy]-3-quinolyl]-2-(phenylthio) propionic acid] | 68 % per control | 60 % per control |  |  | 
COCCOC(Cc1cc2cc(OCc3ccc(C(F)(F)F)cc3)ccc2[nH]1)C(=O)O (centres unmarked) [Compound 2, 2-(2-methoxyethoxy)-3-[5-[(4-trifluoro-methyl)benzyloxy]-2-indolyl]propionic acid] |  |  | 53 % per control | 17 % per control | 
CCOC(Cc1cnc2ccc(OCc3ccc(Cl)cc3)cc2c1)C(=O)O (centres unmarked) [Compound 3, 3-[6-(4-chlorobenzyloxy)-3-quinolyl]-2-ethoxypropionic acid] |  |  | 63 % per control | 66 % per control | 
CCOC(Cc1cnc2cc(OCc3ccc(Cl)cc3)ccc2c1)C(=O)O (centres unmarked) [Compound 4, 3-[7-(4-chlorobenzyloxy)-3-quinolyl]-2-ethoxypropionic acid] |  |  | 58 % per control | 61 % per control | 
O=C(O)C(Cc1cnc2cc(OCc3ccc(Cl)cc3)ccc2c1)Oc1ccccc1 (centres unmarked) [Compound 5, 3-[7-(4-chlorobenzyloxy)-3-quinolyl]-2-phenoxypropionic acid] |  |  | 77 % per control | 81 % per control | 
Cc1oc(-c2ccccc2)nc1CCc1noc2cc(CC(Sc3ccccc3)C(=O)O)ccc12 (centres unmarked) [Compound 6, 2-phenylthio-3-[3-[2-(2-phenyl-5-methyl-4-oxazolyl)ethyl]-1,2-benzisoxazol-6-yl]-propionic acid] | 46 % per control | 31 % per control |  |  | 
CCOC(Cc1ccc2c(CCc3nc(-c4ccccc4)oc3C)noc2c1)C(=O)O (centres unmarked) [Compound 7, 2-ethoxy-3-[3-[2-(2-phenyl-5-methyl-4-oxazolyl)ethyl]-1,2-benzisoxazol-6-yl]-propionic acid] |  |  |  |  | Plasma glucose concentration (% per control) (KKA^y mouse; dosage 1 mg/kg): 76 % per control; Triglyceride concentration (% per control) (KKA^y mouse; dosage 1 mg/kg): 87 % per control; Plasma glucose concentration (% per control) (KKA^y mouse; dosage 3 mg/kg): 61 % per control; Triglyceride concentration (% per control) (KKA^y mouse; dosage 3 mg/kg): 65 % per control; Plasma glucose concentration (% per control) (KKA^y mouse; dosage 10 mg/kg): 60 % per control; Triglyceride concentration (% per control) (KKA^y mouse; dosage 10 mg/kg): 45 % per control
CCCSC(Cc1cnc2cc(OCc3ccc(Cl)cc3)ccc2c1)C(=O)O (centres unmarked) [Example 2, 3-[7-(4-Chlorobenzyloxy)-3-quinolyl]-2-(propylthio) propionic acid] |  |  |  |  | melting point: 50 to 60 °C
COCCOC(Cc1cnc2cc(OCc3ccc(Cl)cc3)ccc2c1)C(=O)O (centres unmarked) [Example 6, 3-[7-(4-Chlorobenzyloxy)-3-quinolyl]-2-(2-methoxyethoxy) propionic acid] |  |  |  |  | melting point: 110 to 113 °C
COCCOC(Cc1cnc2ccc(OCc3ccc([N+](=O)[O-])cc3)cc2c1)C(=O)O (centres unmarked) [Example 7, 2-(2-Methoxyethoxy)-3-[6-(4-nitrobenzyloxy)-3-quinolyl]propionic acid] |  |  |  |  | melting point: 146 to 148 °C
CCc1ccc(CCOc2ccc(CC3SC(=O)NC3=O)cc2)nc1.Cl (centres unmarked) [Pioglitazone hydrochloride, reference compound] | 65 % per control | 69 % per control | 68 % per control | 84 % per control | 
Cc1c(C)c2c(c(C)c1O)CCC(C)(COc1ccc(CC3SC(=O)NC3=O)cc1)O2 (centres unmarked) [Troglitazone, reference compound] | 68 % per control | 101 % per control | 84 % per control | 99 % per control | 
